In test [1] the target is T1, α1A-AR receptor (Homo sapiens, UniProt P35348).
T1 sequence (P35348 1-466): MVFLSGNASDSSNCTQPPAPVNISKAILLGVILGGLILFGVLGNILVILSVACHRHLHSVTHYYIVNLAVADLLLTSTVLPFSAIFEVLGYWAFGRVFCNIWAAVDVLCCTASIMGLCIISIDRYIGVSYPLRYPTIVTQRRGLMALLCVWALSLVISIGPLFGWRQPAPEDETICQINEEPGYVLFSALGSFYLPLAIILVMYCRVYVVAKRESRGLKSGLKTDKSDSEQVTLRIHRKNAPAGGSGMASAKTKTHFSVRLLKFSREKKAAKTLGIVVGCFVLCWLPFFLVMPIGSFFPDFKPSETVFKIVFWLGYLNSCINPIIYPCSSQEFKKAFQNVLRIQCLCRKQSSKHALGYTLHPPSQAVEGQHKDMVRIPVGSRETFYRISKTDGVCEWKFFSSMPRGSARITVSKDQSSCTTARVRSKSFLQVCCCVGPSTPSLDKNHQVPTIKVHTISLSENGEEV
Conditions: as compared to noradrenaline; FLIPR assay; Blue et al., Table 1; cited from earlier work.

The target in test [2] is T1, α1A-AR receptor. Conditions: as compared to noradrenaline; InsPs accumulation assay; Blue et al., Table 1; cited from earlier work.
The test system of test [3] is neurogenic orthostatic hypotension (nOH) patients. The experiment in a line: Treatment of patients having nOH (Example 1). Conditions: 5 mg oral tablets twice daily, follow-up after one week of treatment. It is filed as in vivo, human. On the procedure: Patients between the age of 40 and 80 years old that have been diagnosed with symptomatic orthostatic hypotension due to pure autonomic failure, multiple system atrophy or Parkinson's disease (i.e., PD plus symptoms) present for treatment. At the time of presentation, autonomic function testing is conducted to confirm the diagnosis of autonomic dysfunction including sinus arrhythmia and the Valsalva maneuver.
The patients are given 5 mg dabuzalgron oral tablets and are instructed to take one tablet shortly after waking up in the morning and a second tablet 4-6 hours later each day.
Some patients return for a follow-up visit after one week of treatment. […] In the follow-up visit supine systolic blood pressure (SSBP) may be determined.

The values that follow come from US20220401415A1, “METHODS FOR TREATING NEUROLOGICAL DISORDERS WITH ALPHA1A-AR PARTIAL AGONISTS” (Curasen Therapeutics, Inc., priority 2019, published 2022).

Each structure is given as a SMILES string. Read-outs that look alike come from different tables or passages of the source.

With `Cc1c(OCC2=NCCN2)ccc(Cl)c1NS(C)(=O)=O.Cl` [RO 115-1240 (dabuzalgron) HCl salt, N-[6-chloro-3-(4,5-dihydro-1H-imidazol-2-ylmethoxy)-2-methylphenyl]methanesulfonamide hydrochloride], the figures for the intrinsic activity on α1A-AR receptor [1] and at α1A-AR receptor [2] were 0.51 and 0.27, respectively.
`Cc1c(OCC2=NCCN2)ccc(Cl)c1NS(C)(=O)=O` [RO 115-1240 (dabuzalgron) free base, N-[6-chloro-3-(4,5-dihydro-1H-imidazol-2-ylmethoxy)-2-methylphenyl]methanesulfonamide]: the intrinsic activity on α1A-AR receptor [2] is given as 0.31. The “symptoms of nOH as compared to the first visit” value in test [3] is reported as “symptoms of nOH improve”.
